Source: ChEMBL document CHEMBL1201862, “PubChem BioAssay data set” (2004)
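Dose response: 5 concentrations. Exposure: 48 h. Format: 96-well plates. Endpoint: linear interpolation; highest concentration if not reached. GI50 is the concentration that inhibits growth by half.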 The source made the active and inactive calls. Rule as the data show it: active = GI50 up to about 1.1 µM and inactive = higher.

Experiments:
Test in all cases: DTP human tumour cell line panel, 48 h
[1] = test system: KM12
[2] = test system: SNB-75
[3] = test system: MOLT-4
[4] = test system: SF-539
[5] = test system: OVCAR-8
[6] = test system: NCI-H23
[7] = test system: HT-29
[8] = test system: NCI-H226
[9] = test system: UO-31
[10] = test system: UACC-257
[11] = test system: EKVX
[12] = test system: K562
[13] = test system: SF-268
[14] = test system: SN12C
[15] = test system: SF-295
[16] = test system: IGROV-1
[17] = test system: SNB-19
[18] = test system: OVCAR-4
[19] = test system: U-251
[20] = test system: A549

Compound	GI50 [1]	GI50 [2]	GI50 [3]	GI50 [4]	GI50 [5]	GI50 [6]	GI50 [7]	GI50 [8]	GI50 [9]	GI50 [10]	GI50 [11]	GI50 [12]	GI50 [13]	GI50 [14]	GI50 [15]	GI50 [16]	GI50 [17]	GI50 [18]	GI50 [19]	GI50 [20]
Cc1cn(C2CC(O)C(CO)C2C)c(=O)[nH]c1=O (stereo not given)	> 100 µM (inactive)	> 100 µM (inactive)	> 100 µM (inactive)	> 100 µM (inactive)	> 100 µM (inactive)	> 100 µM (inactive)	> 100 µM (inactive)	> 100 µM (inactive)	> 100 µM (inactive)	> 100 µM (inactive)	> 100 µM (inactive)	> 100 µM (inactive)	> 100 µM (inactive)	> 100 µM (inactive)	> 100 µM (inactive)	> 100 µM (inactive)	> 100 µM (inactive)	> 100 µM (inactive)	> 100 µM (inactive)	> 100 µM (inactive)
CN1CCN(P2(=S)Oc3ccc4ccccc4c3-c3c(ccc4ccccc34)O2)CC1	21.6 µM (inactive)	37.5 µM (inactive)	15.1 µM (inactive)	21.5 µM (inactive)	37.2 µM (inactive)	37.5 µM (inactive)	19.6 µM (inactive)	26.2 µM (inactive)	18.4 µM (inactive)	29.7 µM (inactive)	29.6 µM (inactive)	20.7 µM (inactive)	38.4 µM (inactive)	33.5 µM (inactive)	34.9 µM (inactive)	53.1 µM (inactive)	39.6 µM (inactive)	36.6 µM (inactive)	32.7 µM (inactive)	40.3 µM (inactive)
COc1cc2c(cc1OC)-c1cc3ccccc3c[n+]1CC2	65.3 µM (inactive)	> 100 µM (inactive)	> 100 µM (inactive)	> 100 µM (inactive)	> 100 µM (inactive)	> 100 µM (inactive)	> 100 µM (inactive)	> 100 µM (inactive)	> 100 µM (inactive)	89.5 µM (inactive)	> 100 µM (inactive)	48.4 µM (inactive)	27.5 µM (inactive)	39.6 µM (inactive)	74.8 µM (inactive)	> 100 µM (inactive)	> 100 µM (inactive)	> 100 µM (inactive)	33.6 µM (inactive)	> 100 µM (inactive)
CCOC(=O)/C=C(\C)c1ccc(Cl)cc1	> 100 µM (inactive)	> 100 µM (inactive)	> 100 µM (inactive)	> 100 µM (inactive)	> 100 µM (inactive)	> 100 µM (inactive)	> 100 µM (inactive)	54.8 µM (inactive)	> 100 µM (inactive)	> 100 µM (inactive)	> 100 µM (inactive)	> 100 µM (inactive)	> 100 µM (inactive)	> 100 µM (inactive)	> 100 µM (inactive)	> 100 µM (inactive)	> 100 µM (inactive)	> 100 µM (inactive)	> 100 µM (inactive)	> 100 µM (inactive)
O=C(Nc1cccc(O)c1)C(=O)C(C(=O)c1ccccc1F)C1OC(=O)c2ccccc21 (stereo not given)	18.4 µM (inactive)	17.5 µM (inactive)	28.6 µM (inactive)	15.2 µM (inactive)	14.6 µM (inactive)	27 µM (inactive)	36.7 µM (inactive)	17.2 µM (inactive)	32.1 µM (inactive)	84.5 µM (inactive)	34 µM (inactive)	37.3 µM (inactive)	19.6 µM (inactive)	19.4 µM (inactive)	52.6 µM (inactive)	38.7 µM (inactive)	19.9 µM (inactive)	23.9 µM (inactive)	11.6 µM (inactive)	29.4 µM (inactive)
COC1=C2CC(C)CC(OC)C(O)C(C)/C=C(\C)C(OC(N)=O)C(OC)/C=C\C=C(/C)C(=O)NC(=C(/C=N/C(C)(C)C)C1=O)C2=O (stereo not given)	4.62 µM (inactive)	0.767 µM (active)	3.44 µM (inactive)	1.66 µM (inactive)	5 µM (inactive)	0.849 µM (active)	3.19 µM (inactive)	1.75 µM (inactive)	8.81 µM (inactive)	2.55 µM (inactive)	3.64 µM (inactive)	0.82 µM (active)	6.3 µM (inactive)	2.04 µM (inactive)	5.02 µM (inactive)	13.1 µM (inactive)	4.85 µM (inactive)	1.71 µM (inactive)	1.43 µM (inactive)	2.47 µM (inactive)
CCOC(=O)/C=C/c1c(C)[nH]c(=O)[nH]c1=O	> 250 µM (inactive)	> 250 µM (inactive)	> 250 µM (inactive)	> 250 µM (inactive)	212 µM (inactive)	> 250 µM (inactive)	> 250 µM (inactive)	> 250 µM (inactive)	> 250 µM (inactive)	> 250 µM (inactive)	> 250 µM (inactive)	> 250 µM (inactive)	> 250 µM (inactive)	> 250 µM (inactive)	> 250 µM (inactive)	> 250 µM (inactive)	> 250 µM (inactive)	> 158 µM (inactive)	> 250 µM (inactive)	> 250 µM (inactive)
CN(CCCNc1ccc2ncn3c4ccccc4c(=O)c1c23)CCCN1C(=O)c2cccc3cc([N+](=O)[O-])cc(c23)C1=O	0.0292 µM (active)	0.018 µM (active)	0.00565 µM (active)	0.00548 µM (active)	0.0205 µM (active)	0.0208 µM (active)	0.00149 µM (active)	0.00603 µM (active)	0.015 µM (active)	0.0867 µM (active)	0.0561 µM (active)	0.0201 µM (active)	0.0247 µM (active)	0.0125 µM (active)	0.0134 µM (active)	0.00948 µM (active)	0.0401 µM (active)	0.131 µM (active)	0.00966 µM (active)	0.00628 µM (active)
C/C(=N\NS(=O)(=O)c1ccccc1)c1ccccc1	> 100 µM (inactive)	> 100 µM (inactive)	> 100 µM (inactive)	> 100 µM (inactive)	> 100 µM (inactive)	> 100 µM (inactive)	> 100 µM (inactive)	> 80.4 µM (inactive)	> 100 µM (inactive)	> 100 µM (inactive)	> 100 µM (inactive)	> 100 µM (inactive)	> 100 µM (inactive)	> 100 µM (inactive)	> 100 µM (inactive)	> 100 µM (inactive)	> 100 µM (inactive)	> 100 µM (inactive)	> 100 µM (inactive)	> 100 µM (inactive)
COc1cc(O)c2c(c1)C(=O)c1cc(C)cc(O)c1C2=O [PHYSCION]	> 100 µM (inactive)	93.8 µM (inactive)	> 100 µM (inactive)	> 100 µM (inactive)	> 100 µM (inactive)	> 100 µM (inactive)	> 100 µM (inactive)	> 100 µM (inactive)	> 100 µM (inactive)	> 100 µM (inactive)	> 100 µM (inactive)	> 100 µM (inactive)	> 100 µM (inactive)	> 100 µM (inactive)	> 100 µM (inactive)	> 100 µM (inactive)	> 100 µM (inactive)	> 100 µM (inactive)	> 100 µM (inactive)	> 100 µM (inactive)
